Measured values from US11577092B2, “Phosphor-containing drug activator activatable by a monte carlo derived X-ray exposure, system containing the activator, and methods for use” (IMMUNOLIGHT, LLC, priority 2016, dated 2023).

Legend:
[1] = tested on: 4T1-HER2 cells; assay: Methylene blue staining for cell viability post treatment; type: cell-based, murine; conditions: individual components; 1 Gy of 80 kVp x-rays; phosphor 25, 50, 100 μg/mL; UVADEX 10 uM 8-MOP
Excerpt: Methylene blue staining of viable 4T1-HER2 cells confirms that the device works well according to the target parameters identified above. A plate having six (6) wells is subjected to treatment. FIG. 11 is a photographic depiction showing of Methylene Blue stain for cell viability post treatment with X-ray, phosphors and UVADEX. One well (#1) is the control. One well (#2) has phosphor coated with EC and DLC (H100). One well (#3) has phosphor coated with EC (but no DLC). One well (#4) has drug UVADEX but no phosphors. One well (#5) has drug UVADEX and phosphors coated with EC and DLC. One well (#6) has drug UVADEX and phosphors coated with EC and no DLC.
All wells were exposed to the optimized x-ray initiation energy noted above. […] One added benefit to a dual coating is redundancy in safety of the treatment.
(§1) Other assays were used to provide independent complimentary information on cell viability, e.g. Methylene blue staining and ATP-induced Luminescence imaging (Cell-Titer-Glo® Luminescence Cell Viability Assay). The luminescence imaging permitted investigation of the cytotoxicity of psoralen activated directly with a UV lamp, and in the absence of phosphors and x-ray radiation.
FIGS. 13A-13D illustrates the efficacy of treatment in-vitro in 4T1-HER2 cells, utilizing a regimen of 1/10-diluted UVADEX (with equivalent of 10 uM 8-MOP), 50 μg/mL phosphor 1 Gy of 80 kVp x-rays. […]

[2] = tested on: 4T1-HER2 cells; assay: Cell viability by Guava flow cytometry (forward scattering) 48 hours after treatment; type: cell-based, murine; conditions: single component, 1 Gy of 80 kVp; UVADEX p=0.97, phosphors p=0.034
Experimental: (§2) In-vitro studies were conducted on plated cells following standard procedures. Cells were maintained in RPMI-1640 supplemented with 10% fetal bovine serum and L-glutamine from GIBCO (Grand Island, N.Y.) growing in a humidified atmosphere of 5% CO2. After incubation, cells were trypsinized and plated evenly onto twelve 12-well plates for 24 hours. […] Each plate had 12 wells with three wells for each of the four treatment arms. The plates were then irradiated with x-rays by placing the plate at a known distance from the x-ray source (50 cm). After irradiation, the cells were incubated on the plate for 48 hours prior to performing flow cytometry. […]
(§3) Two primary flow cytometry analyses were used, both determined at 48 hours after treatment. […] The first analysis evaluated was metabolic cell viability (herein referred to as cell viability) calculated from the number of whole cells per well as determined using forward scattering (FSC). […]
(§4) FIGS. 13A-13D illustrates the efficacy of treatment in-vitro in 4T1-HER2 cells, utilizing a regimen of 1/10-diluted UVADEX (with equivalent of 10 uM 8-MOP), 50 μg/mL phosphor 1 Gy of 80 kVp x-rays. […] In FIG. 13A, cell viability after treatment (10 μM 8-MOP equivalent dilution of UVADEX, 50 μg/mL phosphor, 1 Gy of 80 kVp radiation) as determined by Guava flow cytome cytometry is depicted. […]

[3] = tested on: 4T1-HER2 cells; assay: Annexin V positivity by flow cytometry 48 hours after treatment; type: cell-based, murine; conditions: 10 μM 8-MOP equivalent UVADEX, 50 μg/mL phosphor, 1 Gy of 80 kVp; UVADEX alone with or without x-ray
Experimental: as §2, §3, §4

[4] = tested on: CT2A (murine malignant glioma), 4T1 and KP-B (sarcoma) cell lines; assay: Cell-Titer-Glo Luminescence Cell Viability Assay on three cell lines; type: cell-based; conditions: psoralen 40 μM; UV light 0, 0.25, 0.5, 1.0 J/cm^2; N=4
Excerpt: Guava Annexin V flow cell cytometry was used to quantify cytotoxicity in 3 murine tumor cell lines (mammary −4T1; 4T1-HER2, 4T1 stably transfected with the human HER2 oncogene; glioma-CT2A; sarcoma KP-B). The mouse breast cancer cell line 4T1 was purchased from ATCC. 4T1-HER2 was provided by Dr. Michael Kershaw (Cancer Immunology Program, Peter MacCallum Cancer Centre, Victoria, Australia) and maintained in DMEM with penicillin/streptomycin and 10% FBS The Sarcoma KP-B cell lines were derived from primary tumors LSL-Kras; p53 Flox/Flox mice (45).
as §1
FIG. 14B presents data on CT2A malignant glioma cells, for a range of treatment parameters including variable x-ray dose (0, 0.67 and 1 Gy), phosphor concentration (50 or 100 μg) and psoralen concentration (8-MOP) at 10, 20 and 40 μM respectively. […] N=4 for each cell line at each UV light condition (0, 0.25, 0.5, 1.0 J/cm^2). The psoralen concentration was 40 μM. […]

| Structure (SMILES) | effect in methyl blue staining [1] | reduction in cell viability when radiation was added [2] | increase in Annexin V staining (apoptotic activity) [3] | viable cells after UV light activated psoralen [4] |
| --- | --- | --- | --- | --- |
| COc1c2occc2cc2ccc(=O)oc12 [UVADEX, 8-methoxypsoralen] | little effect | no significant effect | negligible apoptotic activity |  |
| O=c1ccc2cc3ccoc3cc2o1 [psoralen] |  |  |  | reduce viable cells in 3 cell lines |
